{"source": "paper PMC11847841", "about": "“The development and evaluation of a tublysine-based antibody-drug conjugate with enhanced tumor therapeutic efficacy” (Frontiers in Pharmacology, 2025)", "key": {"[1]": {"assay": "Single-dose pharmacokinetic study in cynomolgus monkey"}, "tumor cells": {"tested_on": "tumor cells", "assay": "In vitro cytotoxicity of Tub114 and Tub114-cys", "assay_type": "cell-based", "settings": "at the same concentration as the corresponding ADC; Supplementary Figure S2", "method": "EC50 values were calculated using the built-in software."}, "[2]": {"tested_on": "BT-474 human breast cancer xenografts", "assay": "BT-474 xenograft efficacy study", "assay_type": "in vivo, BALB/c nude mice", "settings": "BT-474 model, administered alone"}, "[3]": {"settings": "exceeds total body water content in rats; ref Pharmaceuticals and Medical Devices Agency, 2013; cited from earlier work"}, "[4]": {"settings": "cited from earlier work; for Cmax of free payload: ref Poon et al., 2013"}, "[5]": {"tested_on": "HER2-positive SK-BR-3 cells", "assay": "In vitro endocytosis into SK-BR-3 cells", "assay_type": "cell-based, human", "method": "(§1) BT-474 and SK-BR-3 cells were cultured to the exponential growth phase, harvested, and washed with pre-cooled PBS. […] Alexa Fluor 488-conjugated goat anti-human IgG (H + L) secondary antibody (10 μg/mL; Invitrogen, Shanghai, China) was subsequently added, and the cells were incubated on ice for 30 min. After additional washes, the cells were resuspended in pre-cooled PBS, divided into five aliquots, and incubated at 37°C for 0, 10, 30, 90, or 120 min. At each time point, cells were further split into two sub-aliquots: one treated with Trypan Blue to quench extracellular fluorescence and the other with PBS as an unquenched control. Fluorescence intensity was measured using a flow cytometer (Guava, Merck Millipore). The percentage of endocytosis was calculated as the ratio of quenched to unquenched fluorescence multiplied by 100%."}, "[6]": {"tested_on": "HER2-negative cell line MDA-MB-468", "assay": "In vitro inhibition of proliferation of HER2-negative cells (EZMTT)", "assay_type": "cell-based, human", "settings": "at high concentrations"}, "[7]": {"tested_on": "HER2-positive BT-474 cells", "assay": "In vitro endocytosis into BT-474 cells", "assay_type": "cell-based, human", "method": "as §1"}, "[8]": {"settings": "Tub114-cys alone 1 mg/kg single administration"}, "[9]": {"settings": "free Tub114-cys in plasma after DX126-262 3 mg/kg single i.v."}, "[10]": {"settings": "free Tub114-cys in plasma after DX126-262 10 mg/kg single i.v."}, "[11]": {"settings": "free Tub114-cys in plasma after DX126-262 30 mg/kg single i.v."}}, "note": "Like-named read-outs stand apart in the source and are kept apart here.", "data": [{"molecule": "CCC(C)C(NC(=O)C(C)(C)N(C)C)C(=O)N(C)C(CC(OC(C)=O)c1nc(C(=O)NC(Cc2ccc(O)c(NC(=O)CCCNC(=O)C(CCCCNC(=O)COCCOCCOCCOCCOCCOCCOCCOCCOCCOC)NC(=O)CCCN3C(=O)CC(SCC(N)C(=O)O)C3=O)c2)CC(C)C(=O)O)cs1)C(C)C", "note": "(centres unmarked) [Tub114-cys]", "values": [{"measurement": "Cmax of free payload", "setting": "[1]; Tub114-cys after 3 mg/kg DX126-262", "result": 5.5, "unit": "nM"}, {"measurement": "Cmax of free payload", "setting": "[1]; Tub114-cys after 10 mg/kg DX126-262", "result": 14.6, "unit": "nM"}, {"measurement": "Cmax of free payload", "setting": "[1]; Tub114-cys after 30 mg/kg DX126-262", "result": 31.7, "unit": "nM"}, {"measurement": "AUCinf", "setting": "[1]; [8]", "result": "4,501.5 ± 657.9 ng•hr/mL"}, {"measurement": "CL", "setting": "[1]; [8]", "result": "3.772 ± 0.578", "unit": "mL/min/kg"}, {"measurement": "Cmax", "setting": "[1]; [8]", "result": "4,155.8 ± 464.2 ng/mL"}, {"measurement": "T1/2", "setting": "[1]; [8]", "result": "1.2 ± 0.2", "unit": "h"}, {"measurement": "Vss", "setting": "[1]; [8]", "result": "0.2538 ± 0.0307", "unit": "L/kg"}, {"measurement": "AUC inf", "setting": "[1]; [9]", "result": "519.2 ± 381.9", "unit": "ng·h/mL"}, {"measurement": "Cmax", "setting": "[1]; [9]", "result": "9.5 ± 1.1", "unit": "ng/mL"}, {"measurement": "T1/2", "setting": "[1]; [9]", "result": "51.4 ± 47.1", "unit": "h"}, {"measurement": "AUC inf", "setting": "[1]; [10]", "result": "966.4 ± 115.4", "unit": "ng·h/mL"}, {"measurement": "Cmax", "setting": "[1]; [10]", "result": "25.0 ± 5.2", "unit": "ng/mL"}, {"measurement": "T1/2", "setting": "[1]; [10]", "result": "26.6 ± 6.6", "unit": "h"}, {"measurement": "AUC inf", "setting": "[1]; [11]", "result": "2,505.7 ± 419.6 ng•hr/mL"}, {"measurement": "Cmax", "setting": "[1]; [11]", "result": "54.3 ± 5.7", "unit": "ng/mL"}, {"measurement": "T1/2", "setting": "[1]; [11]", "result": "28.1 ± 2.7", "unit": "h"}, {"measurement": "Killing of tumor cells by free payload", "setting": "tumor cells", "result": "neither Tub114 nor Tub114-cys could kill tumor cells at the same concentration as the corresponding ADC"}, {"measurement": "Antitumor effect", "setting": "[2]", "result": "no antitumor effect"}]}, {"molecule": "COc1cc2cc(c1Cl)N(C)C(=O)C[C@H](OC(=O)[C@H](C)N(C)C(=O)CCS)[C@]1(C)O[C@H]1[C@H](C)[C@@H]1C[C@@](O)(NC(=O)O1)[C@H](OC)/C=C/C=C(\\C)C2", "note": "[DM1]", "values": [{"measurement": "Vss", "setting": "[3]", "result": "> 0.668", "unit": "L/kg"}, {"measurement": "Cmax of free payload", "setting": "[4]; DM1 after 3 mg/kg Kadcyla", "result": 8.0, "unit": "nM"}, {"measurement": "Cmax of free payload", "setting": "[4]; DM1 after 10 mg/kg Kadcyla", "result": 28.2, "unit": "nM"}, {"measurement": "Cmax of free payload", "setting": "[4]; DM1 after 30 mg/kg Kadcyla", "result": 90.2, "unit": "nM"}]}, {"molecule": "CC[C@@]1(O)C(=O)OCc2c1cc1n(c2=O)Cc2c-1nc1cc(F)c(C)c3c1c2[C@@H](NC(=O)CO)CC3", "note": "[Dxd]", "values": [{"measurement": "Vss", "setting": "[4]; Dxd 1 mg/kg, ref Nagai et al., 2019", "result": 0.832, "unit": "L/kg"}]}, {"molecule": "ado-trastuzumab emtansine [Kadcyla]", "values": [{"measurement": "Endocytosis Efficiency", "setting": "[5]; SK-BR-3, incubation time 0 min", "result": 9.3, "unit": "%"}, {"measurement": "Endocytosis Efficiency", "setting": "[5]; SK-BR-3, incubation time 10 min", "result": 11.8, "unit": "%"}, {"measurement": "Endocytosis Efficiency", "setting": "[5]; SK-BR-3, incubation time 30 min", "result": 17.4, "unit": "%"}, {"measurement": "Endocytosis Efficiency", "setting": "[5]; SK-BR-3, incubation time 90 min", "result": 31.6, "unit": "%"}, {"measurement": "Endocytosis Efficiency", "setting": "[5]; SK-BR-3, incubation time 120 min", "result": 33.4, "unit": "%"}, {"measurement": "Toxicity to HER2-negative cell line MDA-MB-468", "setting": "[6]", "result": "some inhibitory effects"}, {"measurement": "Endocytosis Efficiency", "setting": "[7]; BT-474, incubation time 0 min", "result": 10.8, "unit": "%"}, {"measurement": "Endocytosis Efficiency", "setting": "[7]; BT-474, incubation time 10 min", "result": 27.3, "unit": "%"}, {"measurement": "Endocytosis Efficiency", "setting": "[7]; BT-474, incubation time 30 min", "result": 34.2, "unit": "%"}, {"measurement": "Endocytosis Efficiency", "setting": "[7]; BT-474, incubation time 90 min", "result": 38.6, "unit": "%"}, {"measurement": "Endocytosis Efficiency", "setting": "[7]; BT-474, incubation time 120 min", "result": 43.8, "unit": "%"}]}]}
